Some test systems named below: T-47D breast; UACC-257 melanoma; K-562 leukemia; SR leukemia; ACHN renal; OVCAR-5 ovarian; KM12 colon; UACC-62 melanoma.
Common to all, as to experiment: inhibition of tumour cell growth, NCI panel, 48 h

Several values for one entry are separate records, joined by “and”; a condition that tells them apart may be missing. Identical values can stand only once.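 Results reflect a 48-hour exposure of cells in 96-well plates to compound at five concentrations. At the GI50, growth is halved. The concentration for full growth arrest is given as TGI.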

For the compound `COc1cc(/C=C/c2ccc(O)c(OC)c2)cc(OC)c1`, the TGI is more than 100 µM in the test with T-47D breast; 80.6 µM in the test with UACC-257 melanoma; more than 100 µM in the test with K-562 leukemia; more than 100 µM in the test on SR leukemia; 80 µM in the test on ACHN renal; more than 100 µM in the test on OVCAR-5 ovarian. In the test on KM12 colon, this compound had a TGI of 96.5 µM.

`ClCc1ccccc1Cn1cnc2ncnc(Cl)c21`: the GI50 was 5.88 µM in the test on UACC-257 melanoma; 1.88 µM in the test with UACC-62 melanoma; 2.23 µM with K-562 leukemia; 2 µM in the test with ACHN renal; 2.84 µM with OVCAR-5 ovarian; 3.6 µM in the test with KM12 colon. Further, the TGI in the test with UACC-257 melanoma was 22.1 µM; with UACC-62 melanoma, 5.12 µM; with K-562 leukemia, 5.86 µM; with ACHN renal, 4.27 µM; in the test on OVCAR-5 ovarian, 7.3 µM; in the test on KM12 colon it was 11.3 µM.

Regarding `CC(C)N(Cc1ccc(CN(C(=O)CCl)C(C)C)cc1)C(=O)CCl`, the GI50 with UACC-62 melanoma was 1.04 µM; in the test with K-562 leukemia, 2.28 µM; in the test on SR leukemia it was 0.225 µM; with ACHN renal it was 1.88 µM; with OVCAR-5 ovarian it was 1.91 µM; in the test on KM12 colon, 1.75 µM. Also, the TGI was found to be 2.97 µM in the test with UACC-62 melanoma; 18.3 µM in the test with K-562 leukemia; 0.838 µM in the test with SR leukemia; 3.74 µM in the test on ACHN renal; 3.97 µM with OVCAR-5 ovarian; 3.54 µM in the test on KM12 colon.

In the case of `O=C1CSC(c2ccccc2Cl)N1c1nnc(Cn2cnnc2)o1` (stereo not drawn), the GI50 with T-47D breast was 3.76 µM; with UACC-62 melanoma, 7.55 µM; in the test on K-562 leukemia, 3.33 µM; in the test on SR leukemia it was 3.51 µM; in the test with ACHN renal, 14.3 µM; with OVCAR-5 ovarian, 20.4 µM. Further, the GI50 with KM12 colon was 5.2 µM. The TGI with T-47D breast turned out to be 31.9 µM; with UACC-62 melanoma it was 27.5 µM; in the test on K-562 leukemia, 16.2 µM; in the test on SR leukemia it was 19.1 µM; in the test on ACHN renal, 48.6 µM; in the test on OVCAR-5 ovarian, 44.3 µM. This compound displayed a TGI with KM12 colon of 20.3 µM.

With `CCCCCC(O)C(O)CCC[C@H](O)[C@H]1CC[C@H]([C@H]2CC[C@H]([C@H](O)CCCCCCCCCCCCC3=C[C@H](C)OC3=O)O2)O1` (stereo partly drawn), the GI50 in the test with T-47D breast was 2.12 µM; with UACC-257 melanoma, 1.29 µM; in the test with ACHN renal it was 2.41 µM; in the test with KM12 colon it was 9.78 µM. Also, the TGI was 25.6 µM in the test on T-47D breast; 8.7 µM and 18.6 µM with UACC-257 melanoma; 7.54 µM in the test on UACC-62 melanoma; 6.4 µM in the test with K-562 leukemia; 6.27 µM and 20.8 µM in the test on ACHN renal; 35.4 µM with OVCAR-5 ovarian. Also, in the test with KM12 colon, the TGI came to 29.1 µM.

Take `Cc1cc(N(CCOS(C)(=O)=O)CCOS(C)(=O)=O)ccc1C(=O)O`: the GI50 was more than 100 µM in the test on T-47D breast; more than 100 µM in the test with UACC-62 melanoma; more than 100 µM with K-562 leukemia; 40.7 µM with SR leukemia; 50 µM in the test with ACHN renal; more than 100 µM in the test on OVCAR-5 ovarian. In the test with KM12 colon, the GI50 is more than 100 µM. Moreover, the TGI in the test with T-47D breast, in the test on UACC-62 melanoma, in the test on K-562 leukemia, with SR leukemia, with ACHN renal and in the test on OVCAR-5 ovarian was more than 100 µM each time. This compound also showed a TGI with KM12 colon of more than 100 µM.

With `CC1=C(SC#N)S(=O)(=O)N(c2ccccc2)C(C)=C1SC#N`, the TGI is more than 100 µM with UACC-257 melanoma; more than 100 µM in the test with UACC-62 melanoma; 66 µM with K-562 leukemia; 65.5 µM in the test on SR leukemia; more than 100 µM in the test on ACHN renal; more than 100 µM in the test on OVCAR-5 ovarian. In addition, the TGI in the test with KM12 colon was more than 100 µM.

On to `CCCCCCCCCCCCC(O)c1ccco1` (stereo not drawn), for which the GI50 in the test on T-47D breast is 35.5 µM; in the test with UACC-257 melanoma, 22.6 µM; in the test with UACC-62 melanoma it was 17.7 µM; in the test with K-562 leukemia, 29.1 µM; in the test with ACHN renal it was 17.9 µM; with OVCAR-5 ovarian, 16.1 µM. In the test with KM12 colon, the GI50 is 21.7 µM. Further, the TGI with T-47D breast was more than 100 µM; in the test on UACC-257 melanoma it was 39.4 µM; in the test with UACC-62 melanoma it was 32.4 µM; in the test with K-562 leukemia, 48 µM; in the test on ACHN renal it was 31.7 µM; in the test with OVCAR-5 ovarian it was 30.3 µM. In the test on KM12 colon, this compound yielded a TGI of 48.1 µM.

In the case of `c1ccc(OCCC[P+](c2ccccc2)(c2ccccc2)c2ccccc2)cc1`, the GI50 was 0.383 µM in the test with T-47D breast; 0.381 µM in the test with UACC-257 melanoma; 0.634 µM in the test on K-562 leukemia; 0.646 µM in the test with SR leukemia; 8.94 µM in the test with ACHN renal; 4.09 µM in the test on OVCAR-5 ovarian. Moreover, in the test on KM12 colon, the GI50 was 0.55 µM. In addition, the TGI in the test on T-47D breast was 29.5 µM; in the test with UACC-257 melanoma, 5.71 µM; with K-562 leukemia it was 16.3 µM; with SR leukemia it was 11.4 µM; in the test with ACHN renal, 52.8 µM; with OVCAR-5 ovarian, more than 100 µM. Besides, the TGI in the test on KM12 colon came out at 10.9 µM.

As to `[N-]=[N+]=NCCCn1c2c(c3ccc([N+](=O)[O-])cc3c1=O)C(=O)c1cc(Br)ccc1-2`, the GI50 in the test on T-47D breast, in the test with UACC-257 melanoma, in the test on UACC-62 melanoma, in the test with K-562 leukemia, in the test with ACHN renal and in the test on OVCAR-5 ovarian was more than 100 µM each time. For the same compound, the GI50 in the test on KM12 colon is more than 100 µM. Moreover, the TGI in the test with T-47D breast, in the test with UACC-257 melanoma, in the test with UACC-62 melanoma, with K-562 leukemia, in the test on ACHN renal and in the test on OVCAR-5 ovarian was more than 100 µM throughout. In addition, the TGI in the test on KM12 colon is more than 100 µM.

`O=C(NNc1ccc(Cl)cc1)C1CCC(CNS(=O)(=O)c2ccccc2Cl)CC1` (stereo not drawn): the GI50 with UACC-257 melanoma is 17.1 µM; in the test on UACC-62 melanoma, 2.81 µM; with K-562 leukemia, 1.96 µM; with SR leukemia it was 10.2 µM; with ACHN renal, 16.8 µM; in the test with OVCAR-5 ovarian it was 17.3 µM. Moreover, in the test on KM12 colon, the GI50 is 4.37 µM. In addition, the TGI in the test on UACC-257 melanoma came to 59.7 µM; with UACC-62 melanoma, 9.64 µM; in the test with K-562 leukemia it was 5.73 µM; in the test with SR leukemia, 66.4 µM; in the test on ACHN renal, 66.1 µM; in the test on OVCAR-5 ovarian it was 55 µM. Moreover, the TGI with KM12 colon came out at 99.4 µM.

Source of the values: PubChem BioAssay (NCI).
